Legend:
[1] = molecular target: T1, KCNQ2/3 channels (Homo sapiens, UniProt O43525+O43526); experiment: Fluorescence assay using a voltage sensitive dye (fluorimetry); format: cell-based; settings: for Emax: CHO-K1, CHO-K1 cells expressing KCNQ2/3 channels, read-out: Fluorimetry % efficacy (retigabine = 100%); for Emax / Fluorimetry % efficacy (retigabine = 100%): plateau effect relative to saturated Retigabine (50 µM) = 100%; for EC50 / Fluorimetry % efficacy (retigabine = 100%): CHO-K1 cells expressing KCNQ2/3 channels; for EC50: voltage-sensitive dye, KCl depolarization, read-out: Fluorimetry EC50 / IC50
T1 construct: expressed in transfected cells
Excerpt: Method I. Fluorescence assay using a voltage sensitive dye (fluorimetry)
The modulation of the KCNQ opening state (and consequently the voltage potential of a cell) by test compounds such as compounds according to the present invention results in an increased or reduced amount of a voltage-sensitive dye in the cytoplasm of the cells tested. These voltage-sensitive dyes are fluorescent dyes and, therefore, are forming the link between cell potential influenced by KCNQ modulation and fluorescence intensity. A KCNQ agonist leads to an opening of the channel, potassium and dye efflux, a following hyperpolarization and a reduction of the inner fluorescence intensity in a kinetic protocol. If applying an ion jump by KCl depolarization, KCNQ agonists increase the ΔF/F value. An antagonist performs vice versa, respectively.
The 'fluorimetry EC50' is the half maximum effective concentration (EC50), where the concentration of a drug/compound induces a response halfway between the baseline and maximum plateau effect. In other words, said value represents the concentration of a compound, where 50% of its maximal effect in the fluorimetric assay is observed if the substance concentration is graphed against the corresponding ΔF/F values (for which the calculation method is described below). Therefore, 'fluorimetry EC50' is a measure for the compound potency. The compound efficacy is mirrored by 'fluorimetry % efficacy' ('%Efficacy') and refers to the maximum response achievable by the test compound, i.e. the plateau effect. This drug's plateau effect is related to the plateau effect, which can be achieved by applying a saturated concentration of a reference compound, e.g. Retigabine (50 µM), in independent wells of the same experimental plate or series. A compound showing 100% efficacy is as efficacious as the reference compound (Retigabine) with a saturated concentration.
[…] CHO-K1 cells expressing KCNQ2/3 channels are cultivated adherently at 37°C, 5% CO2 and 95% humidity in cell culture bottles (e.g. 80 cm^2 TC flasks, Nunc) with DMEM-high glucose (Sigma Aldrich, D7777) including 10% FCS (PAN Biotech, e.g. 3302-P270521) or alternatively MEM Alpha Medium (1x, liquid, Invitrogen, #22571), 10% fetal calf serum (FCS) (Invitrogen, #10270-106, heat-inactivated) and the necessary selection antibiotics.
Before being sown out for the measurements, the cells are washed with 1 x DPBS buffer Ca^2+/Mg^2+-free (e.g. Invitrogen, #14190-094) and detached from the bottom of the culture vessel by using Accutase (PAA Laboratories, #L11-007) (incubation with Accutase for 15 min at 37°C). The cell number is determined using a CASY™ cell counter (TCC, Schärfe System). Depending on the optimal density for each individual cell line, 20,000-30,000 cells/well/100 µl are seeded onto 96-well Corning™ CellBIND™ assay plates (Flat Clear Bottom Black Polystyrene Microplates, #3340). Freshly seeded cells are then left to settle for one hour at room temperature, followed by incubation for 24 hours at 37°C, 5% CO2 and 95% humidity.
The voltage-sensitive fluorescent dye from the Membrane Potential Assay Kit (Red™ Bulk format part R8123 for FLIPR, MDS Analytical Technologies™) is prepared by dissolving the contents of one vessel Membrane Potential Assay Kit Red Component A in 200 ml of extracellular buffer (ES buffer, 120 mM NaCl, 1 mM KCI, 10 mM HEPES, 2 mM CaCl2, 2 mM MgCl2, 10 mM glucose; pH 7.4). After removal of the nutrient medium, the cells are washed once with 200 µl of ES buffer, then loaded for 45 min at room temperature in 100 µl of dye solution in the dark.
Fluorescence measurements are carried out in a BMG Labtech FLUOstar™, BMG Labtech NOVOstar™ or BMG Labtech POLARstar™ instrument (525 nm excitation, 560 nm emission, Bottom Read mode). […]

[2] = tested on: withdrawal reflex of the rat tail (tail flick); experiment: Low-intensity tail flick test (rat); format: in vivo, Male Sprague-Dawley rats; settings: MPE [%] at dose 10 mg/kg, dose printed in brackets in the cell
Protocol: Method II. Low-intensity tail flick test (rat)
In the low-intensity tail flick test, the determination of the antinociceptive effect of the compounds according to the invention towards an acute noxious thermal stimulus is carried out by measuring the withdrawal reflex of the rat tail (tail flick) in response to a radiant heat beam (analgesia meter; model 2011 of the company Rhema Labortechnik, Hofheim, Germany) according to the method described by D'Amour and Smith (J. Pharm. Exp. Ther. 72, 74 79 (1941). To this end, the rats were placed in a plexiglas restrainer, and a low-intensity radiant heat beam (48°C) was focused onto the dorsal surface of the tail root. […] Before administration of a compound according to the invention, the animals were pre-tested twice in the course of five minutes and the mean of these measurements was calculated as the pre-test mean. The antinociceptive effect was determined at 20, 40 and 60 min after peroral compound administration. The antinociceptive effect was calculated based on the increase in the tail withdrawal latency according to the following formula and is expressed as percentage of the maximum possible effect (MPE [%]): MPE = [(T1−T0)/(T2−T0)]*100 [formula] […]

Compound: Cc1cc(N2CCOCC2)nc(C2CC2)c1C(=O)NCCC(O)C(C)(C)C (single isomer, unassigned) [Example 1a, 2-cyclopropyl-N-(3-hydroxy-4,4-dimethyl-pentyl)-4-methyl-6-morpholin-4-yl-pyridine-3-carboxylic acid amide]
- Emax [1]: 242%
- EC50 [1]: 961 nM

Compound: Cc1cc(N2CCOCC2)nc(C2CC2)c1C(=O)NCCC(O)C(C)(C)C (single isomer, unassigned) [Example 1b, 2-cyclopropyl-N-(3-hydroxy-4,4-dimethyl-pentyl)-4-methyl-6-morpholin-4-yl-pyridine-3-carboxylic acid amide]
- Fluorimetry % efficacy (retigabine = 100%) [1]: 224%
- EC50 [1]: 318 nM
- Low intensity tail flick, rat, peroral, ED50 or MPE (dose) [2]: 100 (10) %

Compound: Cc1cc(N2CCOCC2)nc(C(C)C)c1C(=O)NCCC(O)C(C)(C)C (single isomer, unassigned) [Example 5a, N-(3-hydroxy-4,4-dimethyl-pentyl)-2-isopropyl-4-methyl-6-morpholin-4-yl-pyridine-3-carboxylic acid amide]
- Emax [1]: 239%
- EC50 [1]: 431 nM

Compound: Cc1cc(N2CCOCC2)nc(C(C)C)c1C(=O)NCCC(O)C(C)(C)C (single isomer, unassigned) [Example 5b, N-(3-hydroxy-4,4-dimethyl-pentyl)-2-isopropyl-4-methyl-6-morpholin-4-yl-pyridine-3-carboxylic acid amide]
- Fluorimetry % efficacy (retigabine = 100%) [1]: 239%
- EC50 [1]: 94 nM

Compound: Cc1cc(N2CCOCC2)nc(C(C)C)c1C(=O)NCCC(O)C(F)(F)F (single isomer, unassigned) [Example 6a, 2-Isopropyl-4-methyl-6-morpholin-4-yl-N-(4,4,4-trifluoro-3-hydroxy-butyl)-pyridine-3-carboxylic acid amide]
- Fluorimetry % efficacy (retigabine = 100%) [1]: 206%
- EC50 [1]: 1090 nM

Compound: Cc1cc(N2CCOCC2)nc(C(C)C)c1C(=O)NCCC(O)C(F)(F)F (single isomer, unassigned) [Example 6b, 2-Isopropyl-4-methyl-6-morpholin-4-yl-N-(4,4,4-trifluoro-3-hydroxy-butyl)-pyridine-3-carboxylic acid amide]
- Fluorimetry % efficacy (retigabine = 100%) [1]: 149%
- EC50 [1]: 3920 nM

Compound: Cc1cc(N2CCOCC2)nc(C2CC2)c1C(=O)NCCC(O)C(C)(C)C (stereo not shown) [Example 1, 2-Cyclopropyl-N-(3-hydroxy-4,4-dimethyl-pentyl)-4-methyl-6-morpholin-4-yl-pyridine-3-carboxylic acid amide]
- Emax [1]: 237%
- EC50 [1]: 529 nM

Compound: Cc1cc(N2CCOCC2)nc(C2CC2)c1C(=O)NC[C@@H]1CCCC[C@H]1O [Example 2, 2-Cyclopropyl-N-[[(1S,2R)-2-hydroxy-cyclohexyl]-methyl]-4-methyl-6-morpholin-4-yl-pyridine-3-carboxylic acid amide]
- Emax [1]: 245%
- EC50 [1]: 483 nM
- Low intensity tail flick, rat, peroral, ED50 or MPE (dose) [2]: 67 (10) %

Compound: Cc1cc(N2CCOCC2)nc(C2CC2)c1C(=O)NC[C@H]1CCCC[C@@H]1O [Example 3, 2-Cyclopropyl-N-[[(1R,2S)-2-hydroxy-cyclohexyl]-methyl]-4-methyl-6-morpholin-4-yl-pyridine-3-carboxylic acid amide]
- Emax [1]: 99%
- EC50 [1]: 8550 nM

Compound: Cc1cc(N2CCOCC2)nc(C(C)C)c1C(=O)NCCC(O)C(C)(C)C (stereo not shown) [Example 5, N-(3-Hydroxy-4,4-dimethyl-pentyl)-2-isopropyl-4-methyl-6-morpholin-4-yl-pyridine-3-carboxylic acid amide]
- Emax [1]: 230%
- EC50 [1]: 156 nM

Compound: Cc1cc(N2CCOCC2)nc(C(C)C)c1C(=O)NCCC(O)C(F)(F)F (stereo not shown) [Example 6, 2-Isopropyl-4-methyl-6-morpholin-4-yl-N-(4,4,4-trifluoro-3-hydroxy-butyl)-pyridine-3-carboxylic acid amide]
- Emax [1]: 150%
- EC50 [1]: 1990 nM

Compound: Cc1cc(N2CCOCC2)nc(C(C)C)c1C(=O)NC[C@@H]1CCCC[C@H]1O [Example 7, N-[[(1S,2R)-2-Hydroxy-cyclohexyl]-methyl]-2-isopropyl-4-methyl-6-morpholin-4-yl-pyridine-3-carboxylic acid amide]
- Emax [1]: 243%
- EC50 [1]: 185 nM

Compound: CCOc1nc(N2CCOCC2)cc(C)c1C(=O)NCCC(O)C(C)(C)C (stereo not shown) [Example 8, 2-Ethoxy-N-(3-hydroxy-4,4-dimethyl-pentyl)-4-methyl-6-morpholin-4-yl-pyridine-3-carboxylic acid amide]
- Emax [1]: 231%
- EC50 [1]: 252 nM

— patent EP2888233B1, “SUBSTITUTED 6-AMINO-NICOTINAMIDES BEARING AN OH-CONTAINING GROUP AS KCNQ2/3 MODULATORS” (Grünenthal GmbH, priority 2012, dated 2013)
